Molecules are shown by their SMILES.

The source of these data is patent publication US20250034182A1, “PHOSPHOLIPID COMPOUNDS AND METHODS OF MAKING AND USING THE SAME” (priority 2021, published 2025).

Assay type in all cases: cell-based
In series [1] the test system is dengue virus type 2 in Huh7 hepatoblastoma cells. In words: Dengue Virus-2 Huh-7 EC50 (Example W). Conditions: MOI of 0.07, CPE, neutral red dye, read-out: Dengue Virus-2 Huh-7 EC50 (nM) (per Ex. W). The protocol: (§1) Huh7 hepatoblastoma cells were seeded onto 96-well plates and incubated at 37° C. with 5% CO2 overnight. The plates were seeded at a cell concentration that will yield >70% confluent monolayers in each well after overnight incubation. Eight 3-fold serial dilutions of compounds were diluted in test media (MEM supplemented with 2% FBS and 50 μg/mL gentamicin). The highest test compound concentration was 50 μg/mL. 100 μL of each concentration was added to 5 test wells on the 96-well plate. Of these 5 test wells, 3 wells of each dilution were infected with dengue virus type 2, diluted in test media (approximately 2000 CCID50 per well for an MOI of 0.07). Test medium (100 μL) with no virus was added to 2 wells to represent the uninfected cytotoxicity controls. Six additional infected wells received 100 μL media alone as untreated virus controls. Further, 100 μL of media alone was added to 6 uninfected wells to serve as uninfected, untreated controls. Cultures were incubated at 37° C.+5% CO2 until >80% CPE is observed. After cytopathic effect (CPE) is observed microscopically, 0.011% neutral red dye was added for approximately 2 hours. The neutral red dye was removed and wells were rinsed once with PBS to remove residual, unincorporated dye. A 50:50 Sorensen citrate buffer/ethanol solution was added and incubated at room temperature for >30 minutes with agitation, followed by measurement of neutral red dye using a spectrophotometer at 540 nm. The resulting optical density measurement was converted to percent signal of the infected, untreated cell control normalizing to virus controls. EC50 and CC50 values were determined by linear regression analysis.

A short description of another series: in vitro. Conditions: human. The protocol: as §1
Series [2] deals with Recombinant Respiratory Syncytial virus strain A2 containing the firefly luciferase reporter (RSV-Fluc) in NHBE cells. In words: RSV NHBE FLuc EC50 (Example I). Conditions: human respiratory syncytial virus, 72 h, read-out: RSV NHBE FLuc EC50 (nM) (per Ex. I). The text has this: Normal human bronchial epithelial (NHBE) cells are purchased from Lonza (Walkersville, MD Cat #CC-2540) and maintained in Bronchial Epithelial Cell Growth Medium (BEGM) (Lonza, Walkersville, MD, Cat #CC-3170) with all provided supplements in the BulletKit. Cells are passaged 2-3 times per week to maintain sub-confluent densities and are used for experiments at passages 2-4.
Recombinant Respiratory Syncytial virus strain A2 containing the firefly luciferase reporter between the P and M genes (RSV-Fluc, 6.3×10^6 TCID50/mL) is purchased from Viratree (Durham, NC, Cat #R^145).
NHBE cells (5×10^3/well) are seeded in 100 μL white wall/clear bottom 96-well plates (Corning) with culture medium and are incubated for 24 hours at 37° C. with 5% CO2. On the following day, three-fold serial dilutions of compounds prepared in DMSO are added to the wells using the HP D300e digital dispenser with normalization to the highest concentration of DMSO in all wells. The cells are then infected with RSV-Fluc diluted with BEGM media at an MOI of 0.1 for a final volume of 200 μL media/well. Uninfected and untreated wells are included as controls to determine compound efficacy against RSV-Fluc. Following incubation with compound and virus for three days at 37° C. with 5% CO2, 100 μL of culture supernatant is removed from each well and replaced with 100 μL of ONE-Glo luciferase reagent (Promega, Madison, WI, Cat #E6110). The plates are gently mixed by rocking for 10 minutes at 21° C. and luminescence signal is measured using an Envision plate reader (PerkinElmer). Values are normalized to the uninfected and infected DMSO controls (0% and 100% infection, respectively). Non-linear regression analysis is applied to determine the compound concentration at which 50% luminescence signal is reduced (EC50) using the XLfit4 add-in for MICROSOFT®EXCEL®. All experiments are performed in duplicate with two technical repeats each.

`CCCCCCCCCCCCCCCCCCOC[C@H](COP(=O)(O)OC[C@@]1(C#N)O[C@@H](c2ccc3c(N)ncnn23)[C@H](O)[C@@H]1O)OCc1ccc(C#N)c(-n2cncn2)c1` [Compound 16, ((2R,3S,4R,5S)-5-(4-aminopyrrolo[2,1-f][1,2,4]triazin-7-yl)-2-cyano-3,4-dihydroxytetrahydrofuran-2-yl)methyl ((R)-2-((4-cyano-3-(1H-1,2,4-triazol-1-yl)benzyl)oxy)-3-(octadecyloxy)propyl) hydrogen phosphate]: the EC50 – broadly, the concentration needed to bring the measured effect to its halfway point – in series [1] is 3900 nM; in series [2], < 6 nM. In “in vitro”, half-maximal cytotoxicity (CC50) was put at 24 µM.

Turning to `CCCCCCCCCCCCCCCCCCOC[C@H](COP(=O)(O)OC[C@@]1(C#N)O[C@@H](c2ccc3c(N)ncnn23)[C@H](O)[C@@H]1O)OCc1ccc(C#N)nc1` [Compound 19, ((2R,3S,4R,5S)-5-(4-aminopyrrolo[2,1-f][1,2,4]triazin-7-yl)-2-cyano-3,4-dihydroxytetrahydrofuran-2-yl)methyl ((R)-2-((6-cyanopyridin-3-yl)methoxy)-3-(octadecyloxy)propyl) hydrogen phosphate], the EC50 in series [1] was 6600 nM; in series [2], 98 nM. Further, in the series “in vitro”, it took 25 µM to reach half-maximal cytotoxicity (CC50).

Turning to `CCCCCCCCCCCCCCCCCCOC[C@H](COP(=O)(O)OC[C@@]1(C#N)O[C@@H](c2ccc3c(N)ncnn23)[C@H](O)[C@@H]1O)Oc1cccc(C#N)n1` [Compound 21, ((2R,3S,4R,5S)-5-(4-aminopyrrolo[2,1-f][1,2,4]triazin-7-yl)-2-cyano-3,4-dihydroxytetrahydrofuran-2-yl)methyl ((R)-2-((6-cyanopyridin-2-yl)oxy)-3-(octadecyloxy)propyl) hydrogen phosphate], in series [2], the EC50 came out at 41 nM.

Regarding `CCCCCCCCCCCCCCCCCC[C@@H](COP(=O)(O)OC[C@@]1(C#N)O[C@@H](c2ccc3c(N)ncnn23)[C@H](O)[C@@H]1O)OCc1cc(F)cc(C#N)c1` [Compound 37, ((2R,3S,4R)-5-(4-aminopyrrolo[2,1-f][1,2,4]triazin-7-yl)-2-cyano-3,4-dihydroxytetrahydrofuran-2-yl)methyl ((S)-2-((3-cyano-5-fluorobenzyl)oxy)icosyl) hydrogen phosphate], the EC50 was 11000 nM in series [1] and 276 nM in series [2]. In the series “in vitro”, the cytotoxic concentration (CC50) (commonly the concentration that lowers cell viability or growth by half) worked out at 16 µM.

As to `CCCCCCCCCCCCCCCCCCC[C@H](COP(=O)(O)OC[C@@]1(C#N)O[C@@H](c2ccc3c(N)ncnn23)[C@H](O)[C@@H]1O)Oc1cc(OC)c(C#N)c(OC)c1` [Compound 39, ((2R,3S,4R,5S)-5-(4-aminopyrrolo[2,1-f][1,2,4]triazin-7-yl)-2-cyano-3,4-dihydroxytetrahydrofuran-2-yl)methyl ((R)-2-(4-cyano-3,5-dimethoxyphenoxy)henicosyl) hydrogen phosphate], the EC50 in series [1] amounted to 9100 nM. In addition, the CC50 in “in vitro” was determined as 14 µM.

Regarding `CCCCCCCCCCCCCCCCCCCC[C@H](COP(=O)(O)OC[C@@]1(C#N)O[C@@H](c2ccc3c(N)ncnn23)[C@H](O)[C@@H]1O)Oc1cccc(C#N)c1` [Compound 51, ((2R,3S,4R,5S)-5-(4-aminopyrrolo[2,1-f][1,2,4]triazin-7-yl)-2-cyano-3,4-dihydroxytetrahydrofuran-2-yl)methyl ((R)-2-(3-cyanophenoxy)docosyl) hydrogen phosphate], the EC50 is 11000 nM in series [1] and 66 nM in series [2]. The compound further gave a CC50 in “in vitro” of 21 µM.

In the case of `CCCCCCCCCCCCCCCCCOC[C@H](COP(=O)(O)OC[C@@]1(C#N)O[C@@H](c2ccc3c(N)ncnn23)[C@H](O)[C@@H]1O)OCc1cc(F)cc(C#N)c1` [Compound 53, ((2R,3S,4R,5S)-5-(4-aminopyrrolo[2,1-f][1,2,4]triazin-7-yl)-2-cyano-3,4-dihydroxytetrahydrofuran-2-yl)methyl ((R)-2-((3-cyano-5-fluorobenzyl)oxy)-3-(heptadecyloxy)propyl) hydrogen phosphate], the EC50 in series [1] is 9900 nM; in series [2], 69 nM. The 50% cytotoxic concentration (CC50) in the series “in vitro” worked out at 16 µM.

As for `CCCCCCCCCCCCCCOC[C@H](COP(=O)(O)OC[C@@]1(C#N)O[C@@H](c2ccc3c(N)ncnn23)[C@H](O)[C@@H]1O)Oc1cc(C#N)ccn1` [Compound 69, ((2R,3S,4R)-5-(4-aminopyrrolo[2,1-f][1,2,4]triazin-7-yl)-2-cyano-3,4-dihydroxytetrahydrofuran-2-yl)methyl ((R)-2-((4-cyanopyridin-2-yl)oxy)-3-(tetradecyloxy)propyl) hydrogen phosphate], in series [2], the EC50 was determined as 29 nM.

In the case of `CCCCCCCCCCCCCCCCCCCC[C@@H](COP(=O)(O)OC[C@@]1(C#N)O[C@@H](c2ccc3c(N)ncnn23)[C@H](O)[C@@H]1O)OCc1cc(F)cc(C#N)c1` [Compound 70, ((2R,3S,4R)-5-(4-aminopyrrolo[2,1-f][1,2,4]triazin-7-yl)-2-cyano-3,4-dihydroxytetrahydrofuran-2-yl)methyl ((S)-2-((3-cyano-5-fluorobenzyl)oxy)docosyl) hydrogen phosphate], in series [1], the EC50 is 12000 nM. For the same compound, the CC50 in “in vitro” worked out at 12 µM.

`CCCCCCCCCCCCCCCCCCOC[C@H](COP(=O)(O)OC[C@@]1(C#N)O[C@@H](c2ccc3c(N)ncnn23)[C@H](O)[C@@H]1O)OCc1ccc(C#N)cc1OC` [Compound 73, ((2R,3S,4R)-5-(4-aminopyrrolo[2,1-f][1,2,4]triazin-7-yl)-2-cyano-3,4-dihydroxytetrahydrofuran-2-yl)methyl ((R)-2-((4-cyano-2-methoxybenzyl)oxy)-3-(octadecyloxy)propyl) hydrogen phosphate]: the EC50 in series [1] was 9500 nM; in series [2], 25 nM. The CC50 in “in vitro” is 19 µM.

On to `CCCCCCCCCCCCCCCCC[C@@H](COP(=O)(O)OC[C@@]1(C#N)O[C@@H](c2ccc3c(N)ncnn23)[C@H](O)[C@@H]1O)OCc1cc(F)cc(C#N)c1` [Compound 74, ((2R,3S,4R)-5-(4-aminopyrrolo[2,1-f][1,2,4]triazin-7-yl)-2-cyano-3,4-dihydroxytetrahydrofuran-2-yl)methyl ((S)-2-((3-cyano-5-fluorobenzyl)oxy)nonadecyl) hydrogen phosphate], for which the EC50 in series [1] turned out to be 10000 nM. The compound also gave a CC50 in “in vitro” of 15 µM.

As for `CCCCCCCCCCCCCCOC[C@H](COP(=O)(O)OC[C@@]1(C#N)O[C@@H](c2ccc3c(N)ncnn23)[C@H](O)[C@@H]1O)OCc1ccc(C#N)cc1F` [Compound 75, ((2R,3S,4R,5S)-5-(4-aminopyrrolo[2,1-f][1,2,4]triazin-7-yl)-2-cyano-3,4-dihydroxytetrahydrofuran-2-yl)methyl ((R)-2-((4-cyano-2-fluorobenzyl)oxy)-3-(tetradecyloxy)propyl) hydrogen phosphate], the values for the EC50 in series [1] and in series [2] were 23000 nM and < 10.9 nM, respectively. For the same compound, the CC50 in “in vitro” was > 50 µM.
